Test results: PubChem BioAssay AID248 (DTP/NCI, 2004)
Toxic doses and inconclusive results are not listed. No stated cut-off is given here; in the data, active means T/C of 150% or more; inactive means T/C below 125%.

Test system: L1210 leukemia ip in BDF1 mice, survival T/C
Test: NCI In Vivo Anticancer Drug Screen. Data for tumor model L1210 Leukemia (intraperitoneal) in B6D2F1 (BDF1) mice
Details: endpoint: mean survival time, higher = longer survival
Outline: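 Tumor was transplanted into mice, which were then dosed with test compound or vehicle alone. Survival was recorded for each group, and the treated figure was expressed relative to the control figure.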

[1] = dose: 50.0 mg/kg/injection, schedule: Q01DX001 (ip), vehicle: carboxymethylcellulose (CMC)
[2] = dose: 100.0 mg/kg/injection, schedule: Q01DX001 (ip), vehicle: carboxymethylcellulose (CMC)
[3] = dose: 200.0 mg/kg/injection, schedule: Q01DX001 (ip), vehicle: carboxymethylcellulose (CMC)
[4] = dose: 400.0 mg/kg/injection, schedule: Q01DX001 (ip), vehicle: carboxymethylcellulose (CMC)
[5] = dose: 100.0 mg/kg/injection, schedule: Q01DX001 (ip), vehicle: saline
[6] = dose: 200.0 mg/kg/injection, schedule: Q01DX001 (ip), vehicle: saline
[7] = dose: 400.0 mg/kg/injection, schedule: Q01DX001 (ip), vehicle: saline
[8] = dose: 100.0 mg/kg/injection, schedule: Q01DX009 (ip), vehicle: saline with Tween-80
[9] = dose: 200.0 mg/kg/injection, schedule: Q01DX009 (ip), vehicle: saline with Tween-80
[10] = dose: 400.0 mg/kg/injection, schedule: Q01DX009 (ip), vehicle: saline with Tween-80
[11] = dose: 100.0 mg/kg/injection, schedule: Q04DX003 (ip), vehicle: other
[12] = dose: 200.0 mg/kg/injection, schedule: Q04DX003 (ip), vehicle: other
[13] = dose: 100.0 mg/kg/injection, schedule: Q01DX009 (ip), vehicle: Klucel (hydroxypropylcellulose) (HPC)
[14] = dose: 200.0 mg/kg/injection, schedule: Q01DX009 (ip), vehicle: Klucel (hydroxypropylcellulose) (HPC)
[15] = dose: 400.0 mg/kg/injection, schedule: Q01DX009 (ip), vehicle: Klucel (hydroxypropylcellulose) (HPC)
[16] = dose: 50.0 mg/kg/injection, schedule: Q01DX009 (ip), vehicle: Klucel (hydroxypropylcellulose) (HPC)

Measured: T/C

CC(NP1(=O)OCC(C)([N+](=O)[O-])CO1)c1ccccc1 (stereo unspecified)
inactive: [1] 97 % of control | [2] 113 % of control | [3] 115 % of control | [4] 95 % of control

CN(C)Cc1ccc(C(C)(C)C)cc1
inactive: dose: 25.0 mg/kg/injection, schedule: Q01DX009 (ip), vehicle: water 97 % of control | dose: 50.0 mg/kg/injection, schedule: Q01DX009 (ip), vehicle: water 105 % of control | dose: 100.0 mg/kg/injection, schedule: Q01DX009 (ip), vehicle: water 95 % of control

SC1c2ccccc2-c2ccc(Br)cc21 (stereo unspecified)
inactive: [5] 101 % of control | [6] 99 % of control | [7] 97 % of control

CS(=O)(=O)C(=Cc1ccccc1Cl)S(C)(=O)=O
inactive: [8] 92 % of control | [9] 100 % of control | [10] 101 % of control

O=S(=O)(CCl)Nc1ccccn1
inactive: dose: 100.0 mg/kg/injection, schedule: Q01DX009 (ip), vehicle: other 96 % of control | [11] 106 % of control | dose: 200.0 mg/kg/injection, schedule: Q01DX009 (ip), vehicle: other 103 % of control | [12] 108 % of control | dose: 400.0 mg/kg/injection, schedule: Q01DX009 (ip), vehicle: other 102 % of control | dose: 400.0 mg/kg/injection, schedule: Q04DX003 (ip), vehicle: other 100 % of control

NC(CSSCC(N)=NCC12CC3CC(CC(C3)C1)C2)=NCC12CC3CC(CC(C3)C1)C2
inactive: dose: 100.0 mg/kg/injection, schedule: Q04DX002 (ip), vehicle: saline with Tween-80 97 % of control | dose: 200.0 mg/kg/injection, schedule: Q04DX002 (ip), vehicle: saline with Tween-80 105 % of control

CC(C)c1cccc(C(C)C)c1OC(=O)Nc1ccccc1Cl
inactive: [13] 105 % of control | dose: 100.0 mg/kg/injection, schedule: Q04DX003 (ip), vehicle: Klucel (hydroxypropylcellulose) (HPC) 100 % of control | [14] 89 % of control | dose: 200.0 mg/kg/injection, schedule: Q04DX003 (ip), vehicle: Klucel (hydroxypropylcellulose) (HPC) 102 % of control | [15] 89 % of control | dose: 400.0 mg/kg/injection, schedule: Q04DX003 (ip), vehicle: Klucel (hydroxypropylcellulose) (HPC) 103 % of control

CC1(C)N=C(N)N=C(N)N1c1cccc(OCCCOc2cccc(NC(=O)CBr)c2)c1
inactive: dose: 5.0 mg/kg/injection, schedule: Q01DX001 (ip), vehicle: saline 95 % of control | dose: 10.0 mg/kg/injection, schedule: Q01DX001 (ip), vehicle: saline 94 % of control | dose: 20.0 mg/kg/injection, schedule: Q01DX001 (ip), vehicle: saline 101 % of control | dose: 40.0 mg/kg/injection, schedule: Q01DX001 (ip), vehicle: saline 103 % of control

c1ccc(C2=Nc3ccccc3C(c3ccccc3)=Nc3ccccc32)cc1
inactive: [8] 89 % of control | [9] 97 % of control | [10] 89 % of control

Nc1nc(N)c(CCCCc2ccccc2)c(N)n1
inactive: [16] 87 % of control | dose: 50.0 mg/kg/injection, schedule: Q01DX Z (ip), vehicle: carboxymethylcellulose (CMC) 95 % of control | [13] 95 % of control

O=C1CCCC(=O)NNC(=O)NCCCCCCNC(=O)NN1
inactive: dose: 50.0 mg/kg/injection, schedule: Q01DX001 (ip), vehicle: saline 102 % of control | [5] 87 % of control | [6] 87 % of control | [7] 96 % of control

O=C(ON=C1C=CC(=NOC(=O)c2ccccc2)C=C1)c1ccccc1
inactive: [5] 97 % of control | [6] 102 % of control | [7] 91 % of control

Oc1ccccc1C=Nc1cccc2c(N=Cc3ccccc3O)cccc12
inactive: dose: 50.0 mg/kg/injection, schedule: Q04DX003 (ip), vehicle: other 89 % of control | [5] 86 % of control | [11] 86 % of control | [6] 88 % of control | [12] 86 % of control | [7] 86 % of control

CC(=O)Oc1c2c(n3c1CCC3)CC(C)CC2=O (stereo unspecified)
inactive: dose: 50.0 mg/kg/injection, schedule: Q04DX002 (ip), vehicle: Klucel (hydroxypropylcellulose) (HPC) 97 % of control | dose: 100.0 mg/kg/injection, schedule: Q04DX002 (ip), vehicle: Klucel (hydroxypropylcellulose) (HPC) 97 % of control | dose: 200.0 mg/kg/injection, schedule: Q04DX002 (ip), vehicle: Klucel (hydroxypropylcellulose) (HPC) 102 % of control

CC(C)=CCC/C(C)=C/Cn1cnc2c(ncn2C2OC(CO)C(O)C2O)c1=O (stereo unspecified)
inactive: dose: 12.5 mg/kg/injection, schedule: Q01DX009 (ip), vehicle: saline 100 % of control | dose: 25.0 mg/kg/injection, schedule: Q01DX005 (ip), vehicle: saline 97 % of control | dose: 25.0 mg/kg/injection, schedule: Q01DX009 (ip), vehicle: saline 100 % of control | dose: 50.0 mg/kg/injection, schedule: Q01DX005 (ip), vehicle: saline 108 % of control | dose: 50.0 mg/kg/injection, schedule: Q01DX009 (ip), vehicle: saline 92 % of control | dose: 100.0 mg/kg/injection, schedule: Q01DX005 (ip), vehicle: saline 96 % of control

CC(C)Cc1ccccn1
inactive: dose: 25.0 mg/kg/injection, schedule: Q01DX009 (ip), vehicle: Klucel (hydroxypropylcellulose) (HPC) 96 % of control | [16] 98 % of control | [13] 91 % of control

CCOC(=O)c1cnc(SCC)nc1SC#N
inactive: dose: 100.0 mg/kg/injection, schedule: Q01DX009 (ip), vehicle: gum acacia 105 % of control | dose: 100.0 mg/kg/injection, schedule: Q04DX003 (ip), vehicle: gum acacia 105 % of control | dose: 200.0 mg/kg/injection, schedule: Q01DX009 (ip), vehicle: gum acacia 106 % of control | dose: 200.0 mg/kg/injection, schedule: Q04DX003 (ip), vehicle: gum acacia 97 % of control | dose: 400.0 mg/kg/injection, schedule: Q01DX009 (ip), vehicle: gum acacia 97 % of control | dose: 400.0 mg/kg/injection, schedule: Q04DX003 (ip), vehicle: gum acacia 97 % of control

CC(=O)Oc1c2c(n3c1CCC3)CC(C)(C)CC2=O
inactive: dose: 75.0 mg/kg/injection, schedule: Q04DX002 (ip), vehicle: Klucel (hydroxypropylcellulose) (HPC) 102 % of control | dose: 150.0 mg/kg/injection, schedule: Q04DX002 (ip), vehicle: Klucel (hydroxypropylcellulose) (HPC) 97 % of control | dose: 300.0 mg/kg/injection, schedule: Q04DX002 (ip), vehicle: Klucel (hydroxypropylcellulose) (HPC) 87 % of control

NC(=O)SCC(N)C(=O)O (stereo unspecified)
inactive: [1] 101 % of control | [2] 90 % of control | dose: 100.0 mg/kg/injection, schedule: Q04DX003 (ip), vehicle: saline 104 % of control | [3] 95 % of control | dose: 200.0 mg/kg/injection, schedule: Q04DX003 (ip), vehicle: saline 110 % of control | [4] 101 % of control | dose: 400.0 mg/kg/injection, schedule: Q04DX003 (ip), vehicle: saline 116 % of control

O=C(Nc1ccc(Cl)cc1[N+](=O)[O-])Oc1ccc(C2CCCCC2)cc1
inactive: [13] 93 % of control | [14] 89 % of control | [15] 88 % of control
